In patent US20070281922A1, “1-Sulfonylindazolylamine and - amide derivatives as 5-hydroxytryptamine-6 ligands” (Wyeth, priority 2006, published 2007):
Where a name gives a salt, the structure may show the parent alone.

Biological target: T1, human cloned 5-HT6 receptors (Homo sapiens, UniProt P50406)
T1 construct: expressed in transfected cells; host or cells: HeLa cells
Test: 5-HT6 binding affinity, [3H]-LSD displacement on membranes of Hela cells expressing human cloned 5-HT6 receptors
Conditions: [3H]-LSD 3.0 nM, Hela cell membranes, 120 minutes at room temperature
Description: The affinity of test compounds for the serotonin 5-HT6 receptor was evaluated in the following manner. Cultured Hela cells expressing human cloned 5-HT6 receptors were harvested and centrifuged at low speed (1,000×g) for 10.0 minutes to remove the culture media. The harvested cells were suspended in half volume of fresh physiological phosphate buffered saline solution and recentrifuged at the same speed. This operation was repeated. The collected cells were then homogenized in ten volumes of 50 mM Tris.HCl (pH 7.4) and 0.5 mM EDTA. The homogenate was centrifuged at 40,000×g for 30.0 min and the precipitate was collected. The obtained pellet was resuspended in 10 volumes of Tris.HCl buffer and recentrifuged at the same speed. The final pellet was suspended in a small volume of Tris.HCl buffer and the tissue protein content was determined in aliquots of 10-25 μl volumes. Bovine Serum Albumin was used as the standard in the protein determination according to the method described in Lowry et al., J. Biol. Chem., 193: 265 (1951).
The volume of the suspended cell membranes was adjusted to give a tissue protein concentration of 1.0 mg/ml of suspension. The prepared membrane suspension (10 times concentrated) was aliquoted in 1.0 ml volumes and stored at −70° C. until used in subsequent binding experiments.
Binding experiments were performed in a 96 well microtiter plate format, in a total volume of 200 μl. […] The test compounds were added in 20.0 μl volume.
The reaction was allowed to proceed in the dark for 120 minutes at room temperature, at which time, the bound ligand-receptor complex was filtered off on a 96 well unifilter with a Packard Filtermate® 196 Harvester. The bound complex caught on the filter disk was allowed to air dry and the radioactivity is measured in a Packard TopCount® equipped with six photomultiplier detectors, after the addition of 40.0 μl Microscint®-20 scintillant to each shallow well. The unifilter plate was heat-sealed and counted in a PackardTopCount® with a tritium efficiency of 31.0%.
Binding in the presence of varying concentrations of test compound was expressed as a percentage of specific binding in the absence of test compound. The results were plotted as log % bound versus log concentration of test compound. […] A linear regression line of data points was plotted, from which the IC50 value is determined and the Ki value is determined based upon the following equation: […]
where L was the concentration of the radioactive ligand used and KD is the dissociation constant of the ligand for the receptor, both expressed in nM.

T1 sequence (P50406 whole entry): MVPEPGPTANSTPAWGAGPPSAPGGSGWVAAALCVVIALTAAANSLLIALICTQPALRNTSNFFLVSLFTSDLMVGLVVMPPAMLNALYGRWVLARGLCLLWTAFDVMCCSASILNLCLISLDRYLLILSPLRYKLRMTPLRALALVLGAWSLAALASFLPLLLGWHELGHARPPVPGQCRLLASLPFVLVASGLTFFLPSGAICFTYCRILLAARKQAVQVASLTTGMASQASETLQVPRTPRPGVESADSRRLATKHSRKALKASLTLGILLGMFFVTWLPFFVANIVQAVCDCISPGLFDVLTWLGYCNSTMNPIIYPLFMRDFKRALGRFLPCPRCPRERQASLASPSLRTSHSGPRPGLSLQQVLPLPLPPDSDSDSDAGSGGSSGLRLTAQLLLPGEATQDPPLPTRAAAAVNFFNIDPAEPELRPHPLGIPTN

SMILES | Ki [nM]
NCCC(=O)Nc1ccc2c(cnn2S(=O)(=O)c2cccc3ccccc23)c1 [Example 6] | 49.5
NCCC(=O)Nc1ccc2cnn(S(=O)(=O)c3cccc4ccccc34)c2c1 [Example 4, N^1-[1-(1-naphthylsulfonyl-1-H-indazol-6-yl]beta-alaninamide Hydrochloride] | 0.5
CNCCC(=O)Nc1ccc2cnn(S(=O)(=O)c3cccc4ccccc34)c2c1 [Example 7] | 1.2
NCCC(=O)Nc1cccc2c1cnn2S(=O)(=O)c1cccc2ccccc12 [Example 5] | 7.9

Other lines, results leading:

Ki [nM] | SMILES
15 | O=C(CCN1CCCCC1)Nc1ccc2cnn(S(=O)(=O)c3cccc4ccccc34)c2c1 [Example 12]
3.4 | O=C(Nc1ccc2cnn(S(=O)(=O)c3cccc4ccccc34)c2c1)C1CCCNC1 (stereo not shown) [Example 9]
1.8 | CN(C)CCC(=O)Nc1ccc2cnn(S(=O)(=O)c3cccc4ccccc34)c2c1 [Example 10]
2.1 | CCN(CC)CCC(=O)Nc1ccc2cnn(S(=O)(=O)c3cccc4ccccc34)c2c1 [Example 11]
18.4 | O=S(=O)(c1cccc2ccccc12)n1ncc2ccc(NCC3CCNCC3)cc21 [Example 14, [1-(Naphthalene-1-sulfonyl)-1H-indazol-6-yl]-piperidin-4-ylmethyl-amine dihydrochloride]
2.3 | O=C(Nc1ccc2cnn(S(=O)(=O)c3cccc4ccccc34)c2c1)C1CCNCC1 [Example 8]
